target: T1, CRTH2 (Homo sapiens, UniProt Q9Y5Y4); test: FRET based competitive immunoassay (cAMP) in CRTH2 expressing CHO cells; assay type: cell-based; details: CRTH2 expressing CHO cells incubated with forskolin and PGD2; Eu3+ cryptate-labeled anti-cAMP and d2-labeled cAMP
T1 construct: expressed in transfected cells; host or cells: CHO cells
T1 sequence (Q9Y5Y4 1-395): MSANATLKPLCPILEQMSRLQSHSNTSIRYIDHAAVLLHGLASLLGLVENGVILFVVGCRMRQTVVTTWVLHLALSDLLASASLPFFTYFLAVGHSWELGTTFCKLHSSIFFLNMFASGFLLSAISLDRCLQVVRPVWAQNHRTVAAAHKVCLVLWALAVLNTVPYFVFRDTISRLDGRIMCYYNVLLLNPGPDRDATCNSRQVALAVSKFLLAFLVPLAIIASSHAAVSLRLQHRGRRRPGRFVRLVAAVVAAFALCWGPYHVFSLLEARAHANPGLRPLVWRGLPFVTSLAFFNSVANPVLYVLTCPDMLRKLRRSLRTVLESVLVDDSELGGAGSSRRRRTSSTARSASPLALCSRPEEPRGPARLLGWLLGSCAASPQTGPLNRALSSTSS
Procedure: FRET Assay: To evaluate potency compounds were tested in a FRET based competitive immunoassay in which CRTH2 expressing CHO cells were incubated in the presence of forskolin and PGD2 along with Eu3+ cryptate-labeled anti-cAMP and d2-labeled cAMP.

Row | SMILES | IC50
1 | Cc1c(Cc2ccc(=O)n(Cc3cc(F)cc(F)c3)c2)c2ccccc2n1CC(=O)O [Example 35, 2-(3-((1-(3,5-Difluorobenzyl)-6-oxo-1,6-dihydropyridin-3-yl)methyl)-2-methyl-1H-indol-1-yl)acetic acid] | 65 nM
2 | Cc1c(Cc2ccc(=O)n(Cc3cc(F)cc(F)c3)c2)c2cc(F)ccc2n1CC(=O)O [Example 36, 2-(3-((1-(3,5-Difluorobenzyl)-6-oxo-1,6-dihydropyridin-3-yl)methyl)-5-fluoro-2-methyl-1H-indol-1-yl)acetic acid] | 2 nM
3 | Cc1c(Cc2ccc(=O)n(Cc3c(F)cccc3F)c2)c2ccccc2n1CC(=O)O [Example 37, 2-(3-((1-(2,6-Difluorobenzyl)-6-oxo-1,6-dihydropyridin-3-yl)methyl)-2-methyl-1H-indol-1-yl)acetic acid] | 35 nM
4 | Cc1c(Cc2ccc(=O)n(Cc3c(F)cccc3F)c2)c2cc(F)ccc2n1CC(=O)O [Example 38, 2-(3-((1-(2,6-Difluorobenzyl)-6-oxo-1,6-dihydropyridin-3-yl)methyl)-5-fluoro-2-methyl-1H-indol-1-yl)acetic acid] | 7 nM
5 | Cc1c(Cc2ccc(=O)n(Cc3cccc(F)c3)c2)c2cc(F)ccc2n1CC(=O)O [Example 39, 2-(5-Fluoro-3-((1-(3-fluorobenzyl)-6-oxo-1,6-dihydropyridin-3-yl)methyl)-2-methyl-1H-indol-1-yl)acetic acid] | 4 nM
6 | Cc1c(Cc2ccc(=O)n(Cc3ccc(F)cc3)c2)c2ccccc2n1CC(=O)O [Example 40, 2-(3-((1-(4-Fluorobenzyl)-6-oxo-1,6-dihydropyridin-3-yl)methyl)-2-methyl-1H-indol-1-yl)acetic acid] | 30 nM
7 | Cc1c(Cc2ccc(=O)n(Cc3ccc(F)cc3)c2)c2cc(F)ccc2n1CC(=O)O [Example 41, 2-(5-Fluoro-3-((1-(4-fluorobenzyl)-6-oxo-1,6-dihydropyridin-3-yl)methyl)-2-methyl-1H-indol-1-yl)acetic acid] | 3 nM
8 | Cc1c(Cc2ccc(=O)n(Cc3ccc(F)cc3F)c2)c2cc(Cl)ccc2n1CC(=O)O [Example 42, 2-(5-Chloro-3-((1-(2,4-difluorobenzyl)-6-oxo-1,6-dihydropyridin-3-yl)-methyl)-2-methyl-1H-indol-1-yl)acetic acid] | 7 nM
9 | Cc1c(Cc2ccc(=O)n(Cc3cccc(F)c3F)c2)c2cc(Cl)ccc2n1CC(=O)O [Example 43, 2-(5-Chloro-3-((1-(2,3-difluorobenzyl)-6-oxo-1,6-dihydropyridin-3-yl)-methyl)-2-methyl-1H-indol-1-yl)acetic acid] | 9 nM
10 | Cc1c(Cc2ccc(=O)n(Cc3cccc(F)c3)c2)c2cc(Cl)ccc2n1CC(=O)O [Example 45, 2-(5-Chloro-3-((1-(3-fluorobenzyl)-6-oxo-1,6-dihydropyridin-3-yl)methyl)-2-methyl-1H-indol-1-yl)acetic acid] | 5 nM
11 | Cc1c(Cc2ccc(=O)n(CC(F)(F)F)c2)c2cc(F)ccc2n1CC(=O)O [Example 46] | 55 nM
12 | Cc1c(-c2nn(Cc3ccccc3)c(=O)c3ccccc23)c2ccccc2n1CC(N)=O [Example 47, 2-(3-(3-Benzyl-4-oxo-3,4-dihydrophthalazin-1-yl)-2-methyl-1H-indol-1-yl)-acetamide] | > 2000 nM
13 | Cc1c(-c2nn(Cc3ccccc3)c(=O)c3ccccc23)c2ccccc2n1CC(=O)N(C)C [Example 48, 2-(3-(3-Benzyl-4-oxo-3,4-dihydrophthalazin-1-yl)-2-methyl-1H-indol-1-yl)-N,N-dimethylacetamide] | > 2000 nM
14 | Cc1c(-c2nn(Cc3ccccc3)c(=O)c3ccccc23)c2ccccc2n1CC(=O)N1CCCC1 [Example 49, 2-Benzyl-4-(2-methyl-1-(2-oxo-2-(pyrrolidin-1-yl)ethyl)-1H-indol-3-yl)phthalazin-1(2H)-one] | > 2000 nM
15 | Cc1c(-c2nn(Cc3ccccc3)c(=O)c3ccccc23)c2ccccc2n1CC(=O)NS(C)(=O)=O [Example 50, 2-(3-(3-Benzyl-4-oxo-3,4-dihydrophthalazin-1-yl)-2-methyl-1H-indol-1-yl)-N-(methylsulfonyl)acetamide] | > 1500 nM
16 | Cc1c(-c2nn(Cc3ccccc3)c(=O)c3ccccc23)c2ccccc2n1Cc1nn[nH]n1 [Example 51, 4-(1-((2H-Tetrazol-5-yl)methyl)-2-methyl-1H-indol-3-yl)-2-benzyl-phthalazin-1(2H)-one] | > 2000 nM
17 | Cc1c(-c2nn(Cc3ccccc3)c(=O)c3ccccc23)c2ccccc2n1CCO [Example 52, 2-Benzyl-4-(1-(2-hydroxyethyl)-2-methyl-1H-indol-3-yl)phthalazin-1(2H)-one] | > 2000 nM

Row | SMILES | IC50
18 | Cc1c(Cc2ccc(=O)n(CC(F)(F)F)c2)c2cc(Cl)ccc2n1CC(=O)O [Example 53, 2-(5-Chloro-2-methyl-3-((6-oxo-1-(2,2,2-trifluoroethyl)-1,6-dihydropyridin-3-yl)methyl)-1H-indol-1-yl)acetic acid] | 55 nM
19 | Cc1c(Cc2ccc(=O)n(CCCC(F)(F)F)c2)c2cc(F)ccc2n1CC(=O)O [Example 54, 2-(5-Fluoro-2-methyl-3-((6-oxo-1-(4,4,4-trifluorobutyl)-1,6-dihydropyridin-3-yl)methyl)-1H-indol-1-yl)acetic acid] | 329 nM
20 | CC(=O)Nc1cccc2c1c(Cc1ccc(=O)n(Cc3ccc(F)cc3F)n1)c(C)n2CC(=O)O [Example 55, 2-(4-Acetamido-3-((1-(2,4-difluorobenzyl)-6-oxo-1,6-dihydropyridazin-3-yl)-methyl)-2-methyl-1H-indol-1-yl)acetic acid] | > 2000 nM
21 | Cc1c(CC2=NN(Cc3ccc(F)cc3F)C(=O)CC2)c2cc(F)ccc2n1CC(=O)O [Example 56, 2-(3-((1-(2,4-Difluorobenzyl)-6-oxo-1,4,5,6-tetrahydropyridazin-3-yl)methyl)-5-fluoro-2-methyl-1H-indol-1-yl)acetic acid] | 5 nM
22 | Cc1c(CC2=NN(CC(F)(F)F)C(=O)CC2)c2cc(F)ccc2n1CC(=O)O [Example 57, 2-(5-Fluoro-2-methyl-3-((6-oxo-1-(2,2,2-trifluoroethyl)-1,4,5,6-tetrahydropyridazin-3-yl)-methyl)-1H-indol-1-yl)acetic acid] | 5 nM
23 | Cc1c(CC2=NN(CCCC(F)(F)F)C(=O)CC2)c2cc(F)ccc2n1CC(=O)O [Example 58, 2-(5-Fluoro-2-methyl-3-((6-oxo-1-(4,4,4-trifluorobutyl)-1,4,5,6-tetrahydro-pyridazin-3-yl)methyl)-1H-indol-1-yl)acetic acid] | 18 nM
24 | Cc1c(-c2nn(Cc3cc(F)ccc3F)c(=O)c3ccccc23)c2cc(Cl)ccc2n1CC(=O)O [Example 59, 2-(5-Chloro-3-(3-(2,5-difluorobenzyl)-4-oxo-3,4-dihydrophthalazin-1-yl)-2-methyl-1H-indol-1-yl)acetic acid] | 12 nM
25 | Cc1c(-c2nn(Cc3cc(F)c(F)cc3F)c(=O)c3ccccc23)c2cc(Cl)ccc2n1CC(=O)O [Example 60, 2-(5-chloro-2-methyl-3-(4-oxo-3-(2,4,5-trifluorobenzyl)-3,4-dihydro-phthalazin-1-yl)-1H-indol-1-yl)acetic acid] | 11 nM
26 | Cc1c(-c2nn(Cc3ccc(F)cc3F)c(=O)c3ccccc23)c2cc(Cl)ccc2n1CC(=O)O [Example 61, 2-(5-chloro-3-(3-(2,4-difluorobenzyl)-4-oxo-3,4-dihydrophthalazin-1-yl)-2-methyl-1H-indol-1-yl)acetic acid] | 11 nM
27 | Cc1c(-c2nn(Cc3cc(F)ccc3F)c(=O)c3ccccc23)c2cc(F)ccc2n1CC(=O)O [Example 62, 2-(3-(3-(2,5-difluorobenzyl)-4-oxo-3,4-dihydrophthalazin-1-yl)-5-fluoro-2-methyl-1H-indol-1-yl)acetic acid] | 9 nM
28 | Cc1c(-c2nn(Cc3cc(F)c(F)cc3F)c(=O)c3ccccc23)c2cc(F)ccc2n1CC(=O)O [Example 63, 2-(5-fluoro-2-methyl-3-(4-oxo-3-(2,4,5-trifluorobenzyl)-3,4-dihydro-phthalazin-1-yl)-1H-indol-1-yl)acetic acid] | 15 nM
29 | Cc1c(-c2nn(Cc3ccc(F)cc3F)c(=O)c3ccccc23)c2cc(F)ccc2n1CC(=O)O [Example 64, 2-(3-(3-(2,4-difluorobenzyl)-4-oxo-3,4-dihydrophthalazin-1-yl)-5-fluoro-2-methyl-1H-indol-1-yl)acetic acid] | 9 nM
30 | Cc1c(-c2nn(Cc3ccc(S(C)(=O)=O)cc3)c(=O)c3ccccc23)c2cc(F)ccc2n1CC(=O)O [Example 65, 2-(5-fluoro-2-methyl-3-(3-(4-(methylsulfonyl)benzyl)-4-oxo-3,4-dihydro-phthalazin-1-yl)-1H-indol-1-yl)acetic acid] | 18 nM
31 | Cc1c(-c2ccc(=O)n(Cc3ccc(S(C)(=O)=O)cc3)n2)c2cc(Cl)ccc2n1CC(=O)O [Example 66, 2-(5-chloro-2-methyl-3-(1-(4-(methylsulfonyl)benzyl)-6-oxo-1,6-dihydropyridazin-3-yl)-1H-indol-1-yl)acetic acid] | 143 nM
32 | Cc1c(-c2ccc(=O)n(Cc3cc(F)ccc3F)n2)c2cc(Cl)ccc2n1CC(=O)O [Example 67, 2-(5-chloro-3-(1-(2,5-difluorobenzyl)-6-oxo-1,6-dihydropyridazin-3-yl)-2-methyl-1H-indol-1-yl)acetic acid] | 23 nM
33 | Cc1c(-c2ccc(=O)n(Cc3ccc(F)cc3F)n2)c2cc(Cl)ccc2n1CC(=O)O [Example 68, 2-(5-chloro-3-(1-(2,4-difluorobenzyl)-6-oxo-1,6-dihydropyridazin-3-yl)-2-methyl-1H-indol-1-yl)acetic acid] | 10 nM
